# Measured values from PMC6428247, “Potent inhibitors of equine steroid isomerase EcaGST A3-3” (PLoS ONE, 2019).
# Structures can show the parent of a compound that is named as a salt. Where two headings read alike, the source gives them in different places.
# Columns and labels:
# EcaGST A3-3 [1] = molecular target: T1, EcaGST A3-3 (Equus caballus, UniProt M9ZT87); assay: Inhibition of EcaGST A3-3 activity, GSH conjugation with CDNB; assay type: biochemical, Equus ferus caballus; settings: for inhibition at 10 µM: read-out: Inhibition (%) of EcaGST A3-3; for IC50: read-out: IC50 EcaGST A3-3, substrate CDNB; for Hill coefficient, CDNB inhibition: dose-response curve, substrate CDNB, mean ± SD
# T1 sequence (M9ZT87 entry or part of it): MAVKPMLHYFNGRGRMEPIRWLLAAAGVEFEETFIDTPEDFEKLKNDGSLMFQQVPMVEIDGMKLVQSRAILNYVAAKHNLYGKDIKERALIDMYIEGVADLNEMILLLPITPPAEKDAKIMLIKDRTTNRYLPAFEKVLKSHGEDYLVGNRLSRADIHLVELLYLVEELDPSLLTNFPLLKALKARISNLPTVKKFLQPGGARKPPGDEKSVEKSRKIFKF
# Method: The final solvent concentration in the reaction system was kept at 5% (v/v) as a maximum.
# (§1) The conjugation of GSH with the electrophilic substrate CDNB was used as a biochemical assay for general activity measurements. Screening of the US Drug library for inhibition was done in triplicates in 96-well plates in a Thermo Scientific Multiskan GO spectrophotometer. The conjugation activity at 30°C was monitored at 340 nm for 1 min in 0.1 M sodium phosphate buffer at pH 6.5 and 10 μM inhibitor concentration in a final volume of 300 μL. Initial concentrations of GSH and CDNB were 1 mM.
# Assay conditions for inhibition measurements of enzyme activity with CDNB were the following: EcaGST A3-3 15 nM, initial concentrations of GSH and CDNB 1 mM, inhibitor concentrations varying from 0.029 μM to 15 μM, in 100 mM Na2HPO4/NaH2PO4 at pH 6.5.
# The reactions were followed spectrophotometrically for 1 min at 30°C using a Shimadzu UV-2501 PC spectrophotometer (Shimadzu Inc.). All experiments included triplicate measurements in each data point.
# The equation for competitive inhibition fitted by non-linear regression was v=Vmax[S]/KM(1+[I]/Ki)+[S] where [S] is the substrate concentrations and [I] is the inhibitor concentration.
# EcaGST A3-3 [2] = molecular target: T1, EcaGST A3-3; assay: Inhibition of EcaGST A3-3 steroid double-bond isomerase activity with Δ^5-AD; assay type: biochemical, Equus ferus caballus; settings: for Hill coefficient, Δ^5-AD inhibition: dose-response curve, substrate Δ^5-AD, mean ± SD
# HsaGST A3-3 = molecular target: T2, HsaGST A3-3 (Homo sapiens, UniProt Q16772); assay: Inhibition of HsaGST A3-3 CDNB activity; assay type: biochemical; settings: 1 mM GSH, 1 mM CDNB, pH 6.5, 30°C; for IC50: CDNB activity; for inhibition at 10 µM: pH 6.5, 10 μM inhibitor, read-out: Inhibition (%) of HsaGST A3-3
# T2 construct: made in house
# T2 sequence (Q16772 1-222): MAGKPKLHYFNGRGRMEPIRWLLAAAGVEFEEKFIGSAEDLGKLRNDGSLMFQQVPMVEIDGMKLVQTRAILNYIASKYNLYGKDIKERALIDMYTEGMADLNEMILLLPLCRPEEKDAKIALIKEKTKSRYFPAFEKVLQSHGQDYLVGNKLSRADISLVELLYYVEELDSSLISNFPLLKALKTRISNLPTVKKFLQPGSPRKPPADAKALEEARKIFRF
# Method: (§2) EcaGST A3-3 [10], HsaGST A3-3 [12] and HsaGST M2-2 [13] were cloned, expressed and purified as described previously. Protein concentration was determined by means of the Bradford assay.
# as §1
# (§3) For understanding the effects of pharmacological interventions based on GST inhibitors, it is important to know the selectivity among the numerous GSTs. […] All values were determined with CDNB, which is a common substrate for all the enzymes.
# HsaGST M2-2 = molecular target: T3, HsaGST M2-2 (Homo sapiens, UniProt P28161); assay: Inhibition of HsaGST M2-2 CDNB activity; assay type: biochemical; settings: 1 mM GSH, 1 mM CDNB, pH 6.5, 30°C; for inhibition at 10 µM: 10 μM inhibitor; for IC50: CDNB activity, read-out: IC50 HsaGST M2-2
# T3 construct: made in house
# T3 sequence (P28161 1-218): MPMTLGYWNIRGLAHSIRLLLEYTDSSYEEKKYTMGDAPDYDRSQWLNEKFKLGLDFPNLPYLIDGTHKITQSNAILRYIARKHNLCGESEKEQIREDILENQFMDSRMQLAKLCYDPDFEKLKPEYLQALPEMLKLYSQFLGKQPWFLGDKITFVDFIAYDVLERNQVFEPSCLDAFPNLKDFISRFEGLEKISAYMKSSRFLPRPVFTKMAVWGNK
# Method: as §2, §1, §3
# HsaGST P1-1 = tested on: HsaGST P1-1; design: method as in PMID 23769903; settings: 3.3 μM inhibitor, 1 mM GSH, 1 mM CDNB, pH 6.5, 30°C; cited from earlier work
# HsaGST S1-1 = tested on: HsaGST S1-1; design: method as in PMID 25603235; settings: 1 mM GSH, 1 mM CDNB, pH 6.5, 30°C, cited from earlier work; for Inhibition (%) of HsaGST S1-1: 10 μM inhibitor; for IC50: CDNB activity
# [3] = 10 μM inhibitor, 1 mM GSH, 1 mM CDNB, sodium phosphate pH 6.5, 30°C
# [4] = 1 mM CDNB, 1 mM GSH, 100 mM sodium phosphate pH 6.5, 30°C
# [5] = 0.1 mM Δ^5-AD, 1 mM GSH, 25 mM sodium phosphate pH 8.0, 30°C
structure (smiles),measurement,setting,value
CC[C@H](C)C(=O)O[C@H]1C[C@@H](C)C=C2C=C[C@H](C)[C@H](CC[C@@H]3C[C@@H](O)CC(=O)O3)[C@H]21 [Lovastatin],inhibition at 10 µM,EcaGST A3-3 [1]; [3],33 ± 15%
COC(=O)Nc1nc2ccc(C(=O)c3ccccc3)cc2[nH]1 [Mebendazole],inhibition at 10 µM,EcaGST A3-3 [1]; [3],35 ± 15%
CC(C)NCC(O)c1cc(O)cc(O)c1 (centres unmarked) [Metaproterenol],inhibition at 10 µM,EcaGST A3-3 [1]; [3],42 ± 24%
COC(=O)C1=C(C)NC(C)=C(C(=O)OCC(C)C)C1c1ccccc1[N+](=O)[O-] (centres unmarked) [Nisoldipine],inhibition at 10 µM,EcaGST A3-3 [1]; [3],75 ± 2.3%
same,"IC50 EcaGST A3-3, substrate CDNB",EcaGST A3-3 [1]; [4],Anomalous curve
same,"IC50 EcaGST A3-3, substrate Δ^5-AD",EcaGST A3-3 [2]; [5],Anomalous curve
same,IC50,HsaGST A3-3,4.1 µM
same,inhibition at 10 µM,HsaGST A3-3,70%
same,inhibition at 10 µM,HsaGST M2-2; read-out: Inhibition (%) of HsaGST M2-2,35%
same,Inhibition (%) of HsaGST P1-1,HsaGST P1-1,14%
same,Inhibition (%) of HsaGST S1-1,HsaGST S1-1,42%
same,IC50,HsaGST S1-1,29 µM
CN1CCCN=C1/C=C/c1cccc(O)c1 [Oxantel pamoate],IC50,HsaGST M2-2,1.7 µM
CCc1ccc(CCOc2ccc(CC3SC(=O)NC3=O)cc2)nc1 (centres unmarked) [Pioglitazone],IC50,HsaGST M2-2,5.9 µM
Nc1ccc(C(=O)[O-])cc1.[K+] [Potassium p-aminobenzoate],Inhibition (%) of EcaGST A3-3,EcaGST A3-3 [1]; [3],30±16%
CN1CCCN=C1/C=C/c1cccs1 [Pyrantel pamoate],IC50,HsaGST M2-2,1.4 µM
Cc1cc(/C=C/c2ccc3cc(N(C)C)ccc3[n+]2C)c(C)n1-c1ccccc1 [Pyrvinium pamoate],IC50,HsaGST M2-2,1.2 µM
C[n+]1cc2c3c(ccc2c2ccc4cc5c(cc4c21)OCO5)OCO3 [Sanguinarine sulfate],inhibition at 10 µM,EcaGST A3-3 [1]; [3],47 ± 19%
O=C(O)c1cc(O)c2c(c1)[C@H]([C@H]1c3cc(C(=O)O)cc(O)c3C(=O)c3c(O[C@@H]4O[C@H](CO)[C@@H](O)[C@H](O)[C@H]4O)cccc31)c1cccc(O[C@@H]3O[C@H](CO)[C@@H](O)[C@H](O)[C@H]3O)c1C2=O [Sennoside A],inhibition at 10 µM,EcaGST A3-3 [1]; [3],100%
same,IC50,EcaGST A3-3 [1]; [4],2.8 ± 0.28 µM
same,"Hill coefficient, CDNB inhibition",EcaGST A3-3 [1],2.2±0.41
same,IC50,EcaGST A3-3 [2],0.11 ± 0.0082 µM
same,"IC50 EcaGST A3-3, substrate Δ^5-AD",EcaGST A3-3 [2]; [5],submicromolar range
same,"Hill coefficient, Δ^5-AD inhibition",EcaGST A3-3 [2],2.1±0.29
same,Times more potent with Δ^5-AD as substrate than with CDNB,"EcaGST A3-3 [2]; ratio of IC50 values CDNB vs Δ^5-AD, EcaGST A3-3",approximately 25 times
same,IC50,HsaGST A3-3,0.98 µM
same,inhibition at 10 µM,HsaGST A3-3,90%
same,inhibition at 10 µM,HsaGST M2-2; read-out: Inhibition (%) of HsaGST M2-2 (symbol),< 30%
same,Inhibition (%) of HsaGST P1-1,HsaGST P1-1,< 4%
same,Inhibition (%) of HsaGST S1-1,HsaGST S1-1,30%
same,IC50,HsaGST S1-1,39 µM
O=C(O)c1cc(/N=N/c2ccc(S(=O)(=O)Nc3ccccn3)cc2)ccc1O [Sulfasalazine],inhibition at 10 µM,EcaGST A3-3 [1]; [3],≤ 30%
same,IC50,HsaGST M2-2,0.3 µM
CC1=C(CC(=O)O)c2cc(F)ccc2/C1=C\c1ccc([S+](C)[O-])cc1 (centres unmarked) [Sulindac],IC50,HsaGST M2-2,23 µM
Cc1ccc(C(=O)Nc2ccc(S(=O)(=O)O)c3cc(S(=O)(=O)O)cc(S(=O)(=O)O)c23)cc1NC(=O)c1cccc(NC(=O)Nc2cccc(C(=O)Nc3cc(C(=O)Nc4ccc(S(=O)(=O)O)c5cc(S(=O)(=O)O)cc(S(=O)(=O)O)c45)ccc3C)c2)c1 [Suramin],inhibition at 10 µM,EcaGST A3-3 [1]; [3],≤ 30%
same,IC50,HsaGST M2-2,0.62 µM
same,IC50,HsaGST S1-1,0.3 µM
O=C(OCC1OC(OC(=O)c2cc(O)c(O)c(OC(=O)c3cc(O)c(O)c(O)c3)c2)C(OC(=O)c2cc(O)c(O)c(OC(=O)c3cc(O)c(O)c(O)c3)c2)C(OC(=O)c2cc(O)c(O)c(OC(=O)c3cc(O)c(O)c(O)c3)c2)C1OC(=O)c1cc(O)c(O)c(OC(=O)c2cc(O)c(O)c(O)c2)c1)c1cc(O)c(O)c(OC(=O)c2cc(O)c(O)c(O)c2)c1 (centres unmarked) [Tannic acid],IC50,EcaGST A3-3 [1]; [4],0.33 ± 0.018 µM
same,"Hill coefficient, CDNB inhibition",EcaGST A3-3 [1],2.2±0.23
same,"IC50 EcaGST A3-3, substrate Δ^5-AD",EcaGST A3-3 [2]; [5],submicromolar range
same,"Hill coefficient, Δ^5-AD inhibition",EcaGST A3-3 [2],2.1±0.63
same,IC50,"EcaGST A3-3 [2]; read-out: IC50 EcaGST A3-3, substrate Δ^5-AD, 0.1 mM Δ^5-AD, 1 mM GSH, 25 mM sodium phosphate pH 8.0, 30°C",0.22 ± 0.034 µM
same,IC50,HsaGST A3-3,0.21 µM
same,IC50,HsaGST M2-2,1.2 µM
same,Inhibition (%) of HsaGST P1-1,HsaGST P1-1,< 4%
same,Inhibition (%) of HsaGST S1-1,HsaGST S1-1,100%
same,IC50,HsaGST S1-1,0.35 µM
